Measurements from patent US11135176B1 (Florida A&M University, priority 2016, dated 2021).

Experiments:
[1] = Solubility of IBU in lipids (visual); type: physicochemical; parameters: key to Solubility of IBU in Geleol mono and diglyceride NF / Solubility of IBU in Glyceryl monostearate / Solubility of IBU in Stearic acid / Solubility of IBU in COMPRITOL ® 888ATO / Solubility of IBU in PRECIROL ® ATO5: +: Clear or transparent mixture implies the drug is soluble in lipid; conditions: for Solubility of IBU in COMPRITOL ® 888ATO / Solubility of IBU in Geleol mono and diglyceride NF / Solubility of IBU in Glyceryl monostearate / Solubility of IBU in PRECIROL ® ATO5 / Solubility of IBU in Stearic acid: 90° C.
Description: The selection of lipid was done by evaluating the solubility of IBU in different lipids such as Compritol® 888ATO (glyceryl behenate), Precirol® ATOS (glyceryl palmitosterate), geleol mono and diglyceride NF, glyceryl monostearate and stearic acid. Briefly, 10 mg of IBU was weighed and added into Eppendorf tube containing 100 mg of lipid. The mixture was then heated for 10 minutes in a water bath at 90° C. to facilitate solubilization. […] Finally, total of 40 mg of drug was added in 100 mg of lipid and checked for the precipitation.

[2] = Drug solubility in 4% of surfactant, analyzed by HPLC; type: physicochemical
[3] = 10 mg of IBU/100 mg of solid lipid
[4] = 20 mg of IBU/100 mg of solid lipid
[5] = 30 mg of IBU/100 mg of solid lipid
[6] = 40 mg of IBU/100 mg of solid lipid

SMILES: CC(C)Cc1ccc(C(C)C(=O)O)cc1 (stereo not shown) [IBU, ibuprofen]
- Solubility of IBU in COMPRITOL ® 888ATO [1, 3]: +
- Solubility of IBU in Geleol mono and diglyceride NF [1, 3]: +
- Solubility of IBU in Glyceryl monostearate [1, 3]: +
- Solubility of IBU in PRECIROL ® ATO5 [1, 3]: +
- Solubility of IBU in Stearic acid [1, 3]: +
- Solubility of IBU in COMPRITOL ® 888ATO [1, 4]: +
- Solubility of IBU in Geleol mono and diglyceride NF [1, 4]: +
- Solubility of IBU in Glyceryl monostearate [1, 4]: +
- Solubility of IBU in PRECIROL ® ATO5 [1, 4]: +
- Solubility of IBU in Stearic acid [1, 4]: +
- Solubility of IBU in COMPRITOL ® 888ATO [1, 5]: +
- Solubility of IBU in Geleol mono and diglyceride NF [1, 5]: +
- Solubility of IBU in Glyceryl monostearate [1, 5]: +
- Solubility of IBU in PRECIROL ® ATO5 [1, 5]: +
- Solubility of IBU in Stearic acid [1, 5]: +
- Solubility of IBU in COMPRITOL ® 888ATO [1, 6]: +
- Solubility of IBU in Geleol mono and diglyceride NF [1, 6]: +
- Solubility of IBU in Glyceryl monostearate [1, 6]: +
- Solubility of IBU in PRECIROL ® ATO5 [1, 6]: +
- Solubility of IBU in Stearic acid [1, 6]: +
- solubility of IBU in the lipid ([1]; 40 of IBU, heated at 90 C, Compritol 888 ATO, Precirol ATO 5, geleol mono and diglyceride NF, glyceryl monostearate and stearic acid): completely soluble
- drug soluble in the surfactant [2]: less than 5%
